The target in experiment [1] is T1, human gene recombinant 5-HT7 receptor expressed in CHO cells (Homo sapiens, UniProt P34969).
T1 construct: expressed in transfected cells; host or cells: CHO cells (membrane preparation)
Description: Binding affinity for the 5-HT7 serotonin receptor ([3H]LSD radioligand). How it is done: In this example, the human gene recombinant 5-HT7 receptor expressed in CHO cells was used. 1 nM [^3H]LSD, 5-HT7 receptor membrane (15 μg/well), a test drug, 10 mM MgCl2, 50 mM Tris-HCl buffer (pH 7.4) containing 0.1 mM EDTA, etc. were added to a vessel until the final volume reached 0.25 ml. The test drug was used at various concentrations. The mixture was cultured at 25° C. for 90 min. The culture was rapidly filtered through a Whatman GF/C glass fiber filter, which had been previously wetted with 0.3% polyethyleneimine using a Brandel harvester, to quench the reaction. The reaction mixture was washed with cold 50 mM Tris-HCl buffer. The filter was covered with MeltiLex, sealed in a sample bag, and dried in an oven. Counting was performed using MicroBeta (Wallac) and nonspecific binding was measured in the presence of […]. The K value of the test drug was obtained from nonlinear regression analysis (GraphPad Prism Program, San Diego, USA) of isotherms obtained by repeatedly performing the experiment on the drug at 10-11 stage concentrations in two test tubes (each twice).
The % inhibition values of the inventive compounds having different Y structures at a concentration of 10 μM against the 5-HT7 serotonin receptor were measured. Further, the binding affinity (Ki) values of the inventive compounds having different Y structures at a concentration of 10 μM for the 5-HT7 serotonin receptor were measured.

In a further experiment the target is T2, 5-HT2C (Homo sapiens, UniProt P28335).
T2 sequence (P28335 33-458): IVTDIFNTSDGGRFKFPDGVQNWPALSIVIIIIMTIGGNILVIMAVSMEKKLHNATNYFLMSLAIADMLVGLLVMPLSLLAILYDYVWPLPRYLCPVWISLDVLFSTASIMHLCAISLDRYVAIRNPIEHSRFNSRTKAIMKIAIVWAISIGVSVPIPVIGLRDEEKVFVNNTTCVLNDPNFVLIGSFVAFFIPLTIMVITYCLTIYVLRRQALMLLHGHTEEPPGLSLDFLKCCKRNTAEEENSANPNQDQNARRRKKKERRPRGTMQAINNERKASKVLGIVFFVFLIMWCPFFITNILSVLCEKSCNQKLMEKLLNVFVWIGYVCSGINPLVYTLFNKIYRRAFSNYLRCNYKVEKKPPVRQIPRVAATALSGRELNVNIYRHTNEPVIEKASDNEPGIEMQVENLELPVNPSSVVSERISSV
The experiment can be described thus: 5-HT2C receptor inhibition/binding (Tables 1-3).

The next experiment addresses 5-HT6 (Homo sapiens, UniProt P50406). Description: 5-HT6 receptor inhibition/binding (Tables 2-3).
The target of the next experiment is T3, 5-HT1A (Homo sapiens, UniProt P08908).
T3 sequence (P08908 1-422): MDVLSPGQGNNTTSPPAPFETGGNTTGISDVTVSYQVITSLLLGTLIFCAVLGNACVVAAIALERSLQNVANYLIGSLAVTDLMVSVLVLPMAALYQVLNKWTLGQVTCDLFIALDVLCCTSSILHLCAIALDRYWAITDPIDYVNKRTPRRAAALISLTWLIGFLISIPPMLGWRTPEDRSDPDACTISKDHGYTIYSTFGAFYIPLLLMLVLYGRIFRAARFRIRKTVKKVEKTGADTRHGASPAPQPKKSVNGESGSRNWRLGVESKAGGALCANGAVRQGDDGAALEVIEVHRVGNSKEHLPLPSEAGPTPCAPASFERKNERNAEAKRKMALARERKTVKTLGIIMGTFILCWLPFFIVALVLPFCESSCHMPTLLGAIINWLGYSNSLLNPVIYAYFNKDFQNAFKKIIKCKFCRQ
The experiment can be described thus: 5-HT1A receptor inhibition (Table 3). The format is binding.

Where a name gives a salt, the structure may show the parent alone.

T1 sequence (P34969 whole entry): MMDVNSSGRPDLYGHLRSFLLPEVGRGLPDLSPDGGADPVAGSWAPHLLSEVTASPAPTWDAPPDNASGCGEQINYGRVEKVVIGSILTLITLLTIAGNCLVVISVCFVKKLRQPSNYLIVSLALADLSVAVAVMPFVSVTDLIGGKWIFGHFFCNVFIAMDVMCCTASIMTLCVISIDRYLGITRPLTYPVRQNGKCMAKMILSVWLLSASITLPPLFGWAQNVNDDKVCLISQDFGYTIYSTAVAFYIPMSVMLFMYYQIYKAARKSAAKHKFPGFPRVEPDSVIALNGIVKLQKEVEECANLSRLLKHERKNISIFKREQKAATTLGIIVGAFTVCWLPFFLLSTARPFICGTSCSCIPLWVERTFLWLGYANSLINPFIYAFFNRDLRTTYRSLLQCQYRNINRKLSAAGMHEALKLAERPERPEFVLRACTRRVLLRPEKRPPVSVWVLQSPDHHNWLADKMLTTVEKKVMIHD
Sequence of 5-HT6 (P50406 whole entry, species assumed): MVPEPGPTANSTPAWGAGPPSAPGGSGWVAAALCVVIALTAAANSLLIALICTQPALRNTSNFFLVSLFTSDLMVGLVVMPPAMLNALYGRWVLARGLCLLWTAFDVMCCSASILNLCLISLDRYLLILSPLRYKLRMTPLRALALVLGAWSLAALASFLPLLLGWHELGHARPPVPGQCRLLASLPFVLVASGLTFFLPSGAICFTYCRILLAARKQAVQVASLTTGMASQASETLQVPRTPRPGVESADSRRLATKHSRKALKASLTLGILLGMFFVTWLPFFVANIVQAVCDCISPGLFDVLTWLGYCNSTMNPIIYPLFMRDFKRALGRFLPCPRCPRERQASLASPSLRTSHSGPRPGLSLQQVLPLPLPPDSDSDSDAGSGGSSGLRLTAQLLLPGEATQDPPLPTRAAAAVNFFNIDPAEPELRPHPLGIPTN

On to `O=C(CCCCN1CCC(c2ccccc2)CC1)n1c2ccccc2c2ccccc21` [Example 2.25, 1-(9H-carbazol-9-yl)-5-(4-phenylpiperidin-1-yl)pentan-1-one hydrochloride], for which the Ki in experiment [1] was found to be 153 nM; at 5-HT2C, 905 nM; at 5-HT6, 1500 nM. In addition, the inhibition at 10 µM stood at 96% in experiment [1], 53.2% on 5-HT2C and 67% on 5-HT6.
`O=C(CCCCN1CCC(Cc2ccccc2)CC1)n1c2ccccc2c2ccccc21` [Example 2.26, 5-(4-Benzylpiperidin-1-yl)-1-(9H-carbazol-9-yl)pentan-1-one hydrochloride]: the results for the Ki (in experiment [1]; at 5-HT6) were 312 nM and 302 nM, respectively. The inhibition at 10 µM was 97.4% in experiment [1], 43.1% at 5-HT2C and 93.4% at 5-HT6.
Turning to `CN1CCN(CCCCC(=O)n2c3ccccc3c3ccccc32)CC1` [Example 2.28, 1-(9H-carbazol-9-yl)-5-(4-methylpiperazin-1-yl)pentan-1-one hydrochloride], the inhibition at 10 µM in experiment [1] was 40.4%; against 5-HT1A it was 15.9%; on 5-HT6 it was 78.4%.
As for `O=C(CCCCN1CCN(c2ccccc2O)CC1)n1c2ccccc2c2ccccc21` [Example 2.30, 1-(9H-carbazol-9-yl)-5-(4-(2-hydroxyphenyl)piperazin-1-yl)pentan-1-one hydrochloride], the Ki in experiment [1] was determined as 86 nM. For the same molecule, the figures for the inhibition at 10 µM (in experiment [1]; at 5-HT1A; on 5-HT6) were 98.7%, 102% and 62.6%, respectively.
The matching figures for `O=C(CCCN1CCN(Cc2ccccc2)CC1)n1c2ccccc2c2ccccc21` [Example 2.32, 4-(4-Benzylpiperazin-1-yl)-1-(9H-carbazol-9-yl)butan-1-one hydrochloride]: 404 nM, 90.8%, 69.4% and 14.7%.
The matching figures for `O=C(CCCN1CCN(c2ccccc2O)CC1)n1c2ccccc2c2ccccc21` [Example 2.33, 1-(9H-carbazol-9-yl)-4-(4-(2-hydroxyphenyl)piperazin-1-yl)butan-1-one]: 50 nM, 97%, 101% and 16.1%.
As for `c1ccc(C2CCN(CCCCCCn3c4ccccc4c4ccccc43)CC2)cc1` [Example 2.43, 9-(6-(4-Phenylpiperidin-1-yl)hexyl)-9H-carbazole], the Ki is 212 nM in experiment [1] and 169 nM at 5-HT6. Also, the values for the inhibition at 10 µM (in experiment [1]; at 5-HT6) were 89.9% and 94.9%, respectively.
The matching figures for `c1ccc(CC2CCN(CCCCCCn3c4ccccc4c4ccccc43)CC2)cc1` [Example 2.44, 9-(6-(4-Benzylpiperidin-1-yl)hexyl)-9H-carbazole]: 232 nM, 142 nM, 86.8% and 97.8%.
Turning to `CC(=O)N1CCN(CCCCCCn2c3ccccc3c3ccccc32)CC1` [Example 2.45, 1-(4-(6-(9H-carbazol-9-yl)hexyl)piperazin-1-yl)ethanone], the Ki in experiment [1] was 1480 nM. In addition, the inhibition at 10 µM in experiment [1] is 63.1%; against 5-HT1A, 6.2%; on 5-HT6, 35%.
In the case of `CN1CCN(CCCCCCn2c3ccccc3c3ccccc32)CC1` [Example 2.46, 9-(6-(4-Methylpiperazin-1-yl)hexyl)-9H-carbazole], the results for the inhibition at 10 µM (in experiment [1]; at 5-HT1A; at 5-HT6) were 49.4%, 19.3% and 82.2%, respectively.
As to `c1ccc(CN2CCN(CCCCCCn3c4ccccc4c4ccccc43)CC2)cc1` [Example 2.47, 9-(6-(4-Benzylpiperazin-1-yl)hexyl)-9H-carbazole], the Ki in experiment [1] came out at 602 nM. The figures for the inhibition at 10 µM (in experiment [1]; against 5-HT1A; at 5-HT6) were 86%, 62% and 77.5%, respectively.
Regarding `Oc1ccccc1N1CCN(CCCCCCn2c3ccccc3c3ccccc32)CC1` [Example 2.48, 2-(4-(6-(9H-carbazol-9-yl)hexyl)piperazin-1-yl)phenol], in experiment [1], the Ki was 89 nM. Moreover, the inhibition at 10 µM in experiment [1] is 90.5%; at 5-HT1A it was 105%; on 5-HT6, 96.9%.
The matching figures for `COc1ccccc1N1CCN(CCCCCCn2c3ccccc3c3ccccc32)CC1` [Example 2.49, 9-(6-(4-(2-Methoxyphenyl)piperazin-1-yl)hexyl)-9H-carbazole]: 145 nM, 85.7%, 105% and 85.1%.
On to `c1ccc(C2CCN(CCCCCn3c4ccccc4c4ccccc43)CC2)cc1` [Example 2.50, 9-(5-(4-Phenylpiperidin-1-yl)pentyl)-9H-carbazole], for which the values for the Ki (in experiment [1]; on 5-HT6) were 178 nM and 123 nM, respectively. For the same molecule, the inhibition at 10 µM came to 94.1% in experiment [1] and 96.1% at 5-HT6.
Turning to `c1ccc(CN2CCN(CCCCCn3c4ccccc4c4ccccc43)CC2)cc1` [Example 2.51, 9-(5-(4-Benzylpiperazin-1-yl)pentyl)-9H-carbazole], the Ki in experiment [1] was determined as 233 nM. For the same molecule, the values for the inhibition at 10 µM (in experiment [1]; on 5-HT1A; at 5-HT6) were 86.8%, 74.9% and 65.1%, respectively.
With `Oc1ccccc1N1CCN(CCCCCn2c3ccccc3c3ccccc32)CC1` [Example 2.52, 2-(4-(5-(9H-carbazol-9-yl)pentyl)piperazin-1-yl)phenol], the Ki in experiment [1] amounted to 31 nM. Moreover, the inhibition at 10 µM was found to be 94.4% in experiment [1], 103% against 5-HT1A and 95.5% at 5-HT6.
Consider `COc1ccccc1N1CCN(CCCCCn2c3ccccc3c3ccccc32)CC1` [Example 2.53, 9-(5-(4-(2-Methoxyphenyl)piperazin-1-yl)pentyl)-9H-carbazole], for which, in experiment [1], the Ki was found to be 65 nM. In addition, the inhibition at 10 µM was determined as 91.5% in experiment [1], 101% against 5-HT1A and 75.5% on 5-HT6.
For `c1ccc(C2CCN(CCCCn3c4ccccc4c4ccccc43)CC2)cc1` [Example 2.54, 9-(4-(4-Phenylpiperidin-1-yl)butyl)-9H-carbazole], the Ki amounted to 205 nM in experiment [1] and 1430 nM on 5-HT6. The inhibition at 10 µM is 94.4% in experiment [1] and 55.5% at 5-HT6.
For the molecule `COc1ccccc1N1CCN(CCCCn2c3ccccc3c3ccccc32)CC1` [Example 2.56, 9-(4-(4-(2-Methoxyphenyl)piperazin-1-yl)butyl)-9H-carbazole], in experiment [1], the Ki is 64 nM. In addition, the inhibition at 10 µM in experiment [1] was found to be 92.5%; on 5-HT1A, 104%; on 5-HT6, 56.3%.
In the case of `c1ccc(C2CCN(CCCn3c4ccccc4c4ccccc43)CC2)cc1` [Example 2.57, 9-(3-(4-Phenylpiperidin-1-yl)propyl)-9H-carbazole], in experiment [1], the Ki is 353 nM and the inhibition at 10 µM is 91.1%. Moreover, the inhibition at 10 µM on 5-HT6 is 32.9%.
In the case of `c1ccc(CN2CCN(CCCn3c4ccccc4c4ccccc43)CC2)cc1` [Example 2.58, 9-(3-(4-Benzylpiperazin-1-yl)propyl)-9H-carbazole], the Ki in experiment [1] is 404 nM. Moreover, the inhibition at 10 µM in experiment [1] is 88.7%; against 5-HT1A, 64.9%; at 5-HT6, 15.1%.
The matching figures for `Oc1ccccc1N1CCN(CCCn2c3ccccc3c3ccccc32)CC1` [Example 2.59, 2-(4-(3-(9H-carbazol-9-yl)propyl)piperazin-1-yl)phenol]: 96 nM, 94.7%, 105% and 21.7%.

For orientation: Ki means a dissociation constant, usually derived from enzyme kinetics or from competition with a known ligand. What is called inhibition is the change of the read-out against control, counted positive when it falls.

Source of the values: patent publication US9663464B2, “Carbazole derivatives acting on 5-HT7 receptor” (KOREA INSTITUTE OF SCIENCE AND TECHNOLOGY, priority 2015, dated 2017).
